# Experimental data: article PMC10247784, “Physiological activation of human and mouse bitter taste receptors by bile acids” (Communications Biology, 2023)
# Several values for one entry are separate records, joined by “and”; a condition that tells them apart may be missing. Identical values can stand only once.
# Tests used:
# [1] = molecular target: T1, human TAS2R39 (Homo sapiens, UniProt P59534); test: Calcium imaging assay (FLIPR), HEK293T-Gα16gust44 cells transfected with human TAS2R39; type: cell-based
# T1 construct: expressed in transfected cells; host or cells: HEK293T-Gα16gust44
# T1 sequence (P59534 1-338): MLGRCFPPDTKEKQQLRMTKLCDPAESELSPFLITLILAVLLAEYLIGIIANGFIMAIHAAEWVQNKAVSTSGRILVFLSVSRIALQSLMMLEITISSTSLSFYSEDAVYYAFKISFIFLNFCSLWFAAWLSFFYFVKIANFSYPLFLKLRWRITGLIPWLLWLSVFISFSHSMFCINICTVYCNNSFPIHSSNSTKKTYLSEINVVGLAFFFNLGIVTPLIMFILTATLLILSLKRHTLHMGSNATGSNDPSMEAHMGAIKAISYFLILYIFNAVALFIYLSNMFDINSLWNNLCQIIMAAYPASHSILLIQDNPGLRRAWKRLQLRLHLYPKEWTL
# Method: (§1) This set of bile acids was chosen because of their commercial availability in high purities, their diversity within the class of bile acids and their previous detection and quantitation in human blood. Stock solutions were prepared in DMSO.
# (§2) As basal growth medium for the HEK293T-Gα16gust44 cell line[17],[59] served Dulbecco’s modified eagle medium (DMEM) (Thermo Fisher Scientific, Darmstadt, Germany) supplemented with 10 % fetal bovine serum (Sigma-Aldrich, Steinheim, Germany), 2 mM L-glutamine (Sigma-Aldrich, Steinheim, Germany), 100 units/ml penicillin (Sigma Aldrich, Steinheim, Germany) and 100 µg/ml streptomycin (Sigma Aldrich, Steinheim, Germany). Growth conditions were 37 °C, 5 % CO2 and saturated air-humidity[60].
# (§3) HEK293T-Gα16gust44 cells were seeded on poly-D-lysine (10 µg/ml) coated 96-well plates to reach a confluence of 40-60 % the next day. For transient transfection 150 ng of plasmid DNA containing the receptor of interest and 0.3 µl lipofectamine 2000 (Thermo Fisher Scientific, Darmstadt, Germany) per well were used and transfection took place according to the manual of lipofectamine 2000. […] The empty vector DNA (mock) was transfected as negative control[14],[41].
# (§4) Cells were loaded using the calcium-sensitive fluorescent dye Fluo-4-AM (Abcam, Cambridge, Great Britain) in the presence of 2.5 mM probenecid (Sigma-Aldrich, Steinheim, Germany) the day after transfection[13],[41]. 1 h after loading, cells were washed with C1 buffer using a BioTek Cell Washer, incubated in the dark for half an hour and washed again. For automated agonist application and measurement of fluorescence changes, a FLIPR^TETRA device (Molecular Devices, San José, United States) was used. Viability of cells was tested by application of 100 nM Somatostatin 14 (Bachem, Bubendorf, Switzerland)[42].
# (§5) Measured data were negative control corrected by subtracting the signal of the mock-transfected cells and exported to Microsoft Excel using the FLIPR software ScreenWorks 4.2. In Microsoft Excel software, standardization of maximum fluorescence intensities to the basal fluorescence and normalization to the buffer-only control was done to calculate the relative fluorescence changes (ΔF/F).
# (§6) Initial screening experiments performed in duplicate wells were confirmed by at least one replication and representative traces were selected for display. All dose-response relationships were determined by three independent experiments (biological replicates) performed in duplicates (technical replicates). Threshold concentrations, defined as lowest substance concentrations leading to statistically significant elevated fluorescence changes in receptor-transfected cells compared with empty vector-transfected cells, were determined using SigmaPlot with Student’s t-test to evaluate statistical significance (p < 0.01).
# [2] = system: HEK293T-Gα16gust44 cells transfected with empty vector (mock); test: Calcium imaging assay (FLIPR), empty vector control (mock); type: cell-based
# Method: as §1, §2, §3, §4, §5, §6
smiles,measurement,setting,value
"C[C@H](CCC(=O)O)[C@H]1CC[C@H]2[C@@H]3[C@H](O)C[C@@H]4C[C@H](O)CC[C@]4(C)[C@H]3C[C@H](O)[C@]12C [Cholic Acid, cholic acid]",Efficacy = maximal amplitude (ΔF/F),"[1]; TAS2R39, bile acids, mean",0.2007
same,"Efficacy (maximal amplitude ΔF/F), individual data points","[1]; TAS2R39, bile acids, single replicates, listed as CA",0.15 and 0.2304 and 0.2216
same,Activation threshold concentration TAS2R39,[1]; lowest concentration with significantly increased fluorescence vs empty vector (p < 0.01),300 µM
same,Δ F/F,"[2]; Conc. 0,01 mM, Mock (sheet TAS2R39)",-0.01821
same,Δ F/F,"[2]; Conc. 0,1 mM, Mock (sheet TAS2R39)",-0.02224
same,Δ F/F,"[2]; Conc. 0,03 mM, Mock (sheet TAS2R39)",-0.01697
same,Δ F/F,"[2]; Conc. 0,3 mM, Mock (sheet TAS2R39)",-0.04388
same,Δ F/F,"[2]; Conc. 0,001 mM, Mock (sheet TAS2R39)",-0.01201
same,Δ F/F,"[2]; Conc. 1 mM, Mock (sheet TAS2R39)",-0.08707
same,Δ F/F,"[2]; Conc. 0,003 mM, Mock (sheet TAS2R39)",-0.01404
same,Δ F/F,"[2]; Mock (sheet Tas2r123), conc. 0,01 mM",-0.0003322
same,Δ F/F,"[2]; Mock (sheet Tas2r123), conc. 0,1 mM",-0.0005726
same,Δ F/F,"[2]; Mock (sheet Tas2r123), conc. 0,03 mM",-0.0005964
same,Δ F/F,"[2]; Mock (sheet Tas2r123), conc. 0,3 mM",0.0008115
same,Δ F/F,"[2]; Mock (sheet Tas2r123), conc. 0,0003 mM",-0.001363
same,Δ F/F,"[2]; Mock (sheet Tas2r123), conc. 0,001 mM",-0.001187
same,Δ F/F,"[2]; Mock (sheet Tas2r123), conc. 0,003 mM",-0.0002243
same,Δ F/F,"[2]; Mock (sheet Tas2r126), conc. 0,01 mM",-0.02005
same,Δ F/F,"[2]; Mock (sheet Tas2r126), conc. 0,1 mM",-0.02997
same,Δ F/F,"[2]; Mock (sheet Tas2r126), conc. 0,03 mM",-0.01829
same,Δ F/F,"[2]; Mock (sheet Tas2r126), conc. 0,3 mM",-0.04711
same,Δ F/F,"[2]; Mock (sheet Tas2r126), conc. 0,001 mM",-0.01156
same,Δ F/F,"[2]; Mock (sheet Tas2r126), conc. 1 mM",-0.07412
same,Δ F/F,"[2]; Mock (sheet Tas2r126), conc. 0,003 mM",-0.01876
same,Δ F/F,"[2]; Mock (sheet Tas2r144), conc. 0,01 mM",0.0002394
same,Δ F/F,"[2]; Mock (sheet Tas2r144), conc. 0,1 mM",-0.0009617
same,Δ F/F,"[2]; Mock (sheet Tas2r144), conc. 0,03 mM",0.0001706
same,Δ F/F,"[2]; Mock (sheet Tas2r144), conc. 0,3 mM",2.3167e-5
same,Δ F/F,"[2]; Mock (sheet Tas2r144), conc. 0,003 mM",-0.001282
same,Δ F/F,"[2]; Mock, sheet TAS2R4, conc. 0,01 mM",-0.001675
same,Δ F/F,"[2]; Mock, sheet TAS2R4, conc. 0,1 mM",0.0001605
same,Δ F/F,"[2]; Mock, sheet TAS2R4, conc. 0,03 mM",-0.001772
same,Δ F/F,"[2]; Mock, sheet TAS2R4, conc. 0,3 mM",0.0004382
same,Δ F/F,"[2]; Mock, sheet TAS2R4, conc. 0,0003 mM",0.001019
same,Δ F/F,"[2]; Mock, sheet TAS2R4, conc. 0,001 mM",-0.0001368
same,Δ F/F,"[2]; Mock, sheet TAS2R4, conc. 0,003 mM",-0.001078
same,Δ F/F,"[2]; Mock, sheet TAS2R14, conc. 0,01 mM",-0.01829
same,Δ F/F,"[2]; Mock, sheet TAS2R14, conc. 0,1 mM",-0.02451
same,Δ F/F,"[2]; Mock, sheet TAS2R14, conc. 0,03 mM",-0.01803
same,Δ F/F,"[2]; Mock, sheet TAS2R14, conc. 0,3 mM",-0.04097
same,Δ F/F,"[2]; Mock, sheet TAS2R14, conc. 0,001 mM",-0.0206
same,Δ F/F,"[2]; Mock, sheet TAS2R14, conc. 1 mM",-0.06455
same,Δ F/F,"[2]; Mock, sheet TAS2R14, conc. 0,003 mM",-0.02081
same,Δ F/F,"[2]; Mock, sheet Tas2r105, conc. 0,01 mM",-0.01514
same,Δ F/F,"[2]; Mock, sheet Tas2r105, conc. 0,1 mM",-0.02586
same,Δ F/F,"[2]; Mock, sheet Tas2r105, conc. 0,03 mM",-0.01353
same,Δ F/F,"[2]; Mock, sheet Tas2r105, conc. 0,3 mM",-0.04947
same,Δ F/F,"[2]; Mock, sheet Tas2r105, conc. 0,001 mM",-0.01259
same,Δ F/F,"[2]; Mock, sheet Tas2r105, conc. 1 mM",-0.08731
same,Δ F/F,"[2]; Mock, sheet Tas2r105, conc. 0,003 mM",-0.01645
same,Δ F/F,"[2]; Mock, sheet Tas2r108, conc. 0,01 mM",-0.0241
same,Δ F/F,"[2]; Mock, sheet Tas2r108, conc. 0,1 mM",-0.03289
same,Δ F/F,"[2]; Mock, sheet Tas2r108, conc. 0,03 mM",-0.0233
same,Δ F/F,"[2]; Mock, sheet Tas2r108, conc. 0,3 mM",-0.05172
same,Δ F/F,"[2]; Mock, sheet Tas2r108, conc. 0,001 mM",-0.01866
same,Δ F/F,"[2]; Mock, sheet Tas2r108, conc. 1 mM",-0.07524
same,Δ F/F,"[2]; Mock, sheet Tas2r108, conc. 0,003 mM",-0.01483
same,Δ F/F,"[2]; Mock, sheet Tas2r117, conc. 0,01 mM",-0.001513
same,Δ F/F,"[2]; Mock, sheet Tas2r117, conc. 0,1 mM",-0.0006881
same,Δ F/F,"[2]; Mock, sheet Tas2r117, conc. 0,03 mM",-0.0006551
same,Δ F/F,"[2]; Mock, sheet Tas2r117, conc. 0,3 mM",-0.001135
same,Δ F/F,"[2]; Mock, sheet Tas2r117, conc. 0,0003 mM",-0.002036
same,Δ F/F,"[2]; Mock, sheet Tas2r117, conc. 0,001 mM",-0.0005906
same,Δ F/F,"[2]; Mock, sheet Tas2r117, conc. 0,003 mM",-0.001196
same,Δ F/F,"[2]; conc. 0,01 mM, Mock (sheet TAS2R1)",-0.002604
same,Δ F/F,"[2]; conc. 0,1 mM, Mock (sheet TAS2R1)",-0.002131
same,Δ F/F,"[2]; conc. 0,03 mM, Mock (sheet TAS2R1)",-0.002188
same,Δ F/F,"[2]; conc. 0,3 mM, Mock (sheet TAS2R1)",-0.001094
same,Δ F/F,"[2]; conc. 0,001 mM, Mock (sheet TAS2R1)",-0.001978
same,Δ F/F,"[2]; conc. 0,003 mM, Mock (sheet TAS2R1)",-0.003067
